For data set [1], the system named is histamine-induced anaphylactoidal reaction. In words: Inhibition of histamine-induced anaphylactoid cutaneous reaction in the rat, test substance p.o. Format: in vivo, rat (Sprague-Dawley). As to conditions: po, 40 μg histamine intradermally, read-out: ED50 inhibiting effect, histamine-induced anaphylactoidal reaction. On the procedure: (§1) 2. Determining the inhibition of passive cutaneous anaphylaxis (PCA) and the inhibition of anaphylactoid cutaneous reactions induced by histamine and by serotonin.
(§2) The determination of the inhibition of passive cutaneous anaphylaxis and the anaphylactoid cutaneous reactions induced by histamine and by serotonin, are carried out, as set forth below, according to the method of Martin and Baggiolini (Naunyn-Schmeiedeberg's Archives of Pharmacology 316 (1981) 186-189).
(§3) For passive sensitizing against ovalbumin, male Sprague-Dawley rates (body weight 150 to 165 g) are injected intradermally on a shaved part of the back with 0.05 ml of a 1:2.5 dilution of antiovalbumin serum, rich in IgE, in physiological sodium chloride solution.
(§4) 24 hours after the sensitizing, solutions of the test substances are administered orally to the rats. For comparison, a control group receives only the solvent.
(§5) To trigger the histamine-induced and serotonin-induced anaphylactoid reactions of the skin, the animals are injected intradermally 30 minutes later on a second shaved part of the back with a solution of 40 μg histamine in 0.05 ml physiological sodium chloride solution and on a third shaved part of the back with a solution of 1 μg serotonin in 0.05 physiological sodium chloride solution.
(§6) Immediately thereafter 1.25 mg (-~8 mg/kg) ovalbumin to trigger the anaphylactic reaction, and 4 mg (-~26.4 mg/kg) of a blue dye dissolved in 0.5 ml phosphate-buffered physiological sodium chloride solution are administered i.v. to the animals.
(§7) After 30 minutes the animals are killed, the skin is removed and in the individual blue patches the quantity of dye contained therein is determined separately. According to the method of Mordelet-Danbrine et al (Therapie 29 (1974) 851-862) the dye is extracted from the individual patches in each case with 2.5 ml dimethylformamide at a temperature of 37° C. for 4 days and the quantity of dye obtained in each case in the extraction solution is determined by spectrophotometric measurement. The doses of the test substances which cause a 50% reduction in the dye concentration compared with the control group are calculated as ED50 values.

A short description of data set [2]: Acute 8-day toxicity, single i.p. application to male mice (LD50). As to conditions: in vivo, ip, mouse i.p., 8 days. The procedure: The acute 8-day toxicity is determined after a single application i.p. to male mice (body weight 18 to 22 g). The mortality is noted for 8 days. The results are calculated as LD50 values, i.e. the dose which kills 50% of the animals.

Data set [3] deals with serotonin induced anaphylactoidal reaction. In words: Inhibition of serotonin-induced anaphylactoid cutaneous reaction in the rat, test substance p.o. As to conditions: po, 1 μg serotonin intradermally, read-out: ED50 inhibiting effect, serotonin induced anaphylactoidal reaction. In kind it is in vivo, rat (Sprague-Dawley). The procedure:
as §1, §2, §3, §4, §5, §6, §7

The subject of data set [4] is passive cutaneous anaphylaxis. In words: Inhibition of passive cutaneous anaphylaxis (PCA) in the rat, test substance p.o. In kind it is in vivo, rat (Sprague-Dawley). As to conditions: po, 50% reduction in dye concentration vs control, read-out: ED50 inhibiting effect, passive cutaneous anaphylaxy. The procedure: as §1
For the preparation of an antiovalbumin serum, rich in IgE, which is used in the test, according to the method of Lehrer et al (J. Immunol. 116, (1976) 178-182) and Pauwels et al (Ann. Immunol. 230C., (1979), 49-58), Sprague-Dawley rats are sensitized by i.p. injection of 1 mg ovalbumin and 1 ml Bordetella pertussis suspension (vaxicoq, Merieux 3×10^10 organisms/ml). After 20 days the animals are given an injection of 10 mg ovalbumin in the same way, but without any additive. After a further 4 days, blood is removed from the animals and the blood is centrifuged. The antiserum thus obtained is stored at -20° C. and adjusted according to the method of Goose et al (Immunology 16 (1968) 749-760).
as §2, §3, §4, §6, §7

Here are results for 14 compounds from US4672063A, “Antiallergic 5-alkyl-1-phenyl-2-piperazinoalkylpyrazolin-3-one compounds” (Kali-Chemie Pharma GmbH, priority 1984, dated 1987).

Bounds are passed on as bounds.

Usually ED50 stands for the dose at which the effect has come halfway, by size or by number of responders. In general, LD50 refers to the dose at which mortality reaches 50%. Higher therefore signals a less toxic substance. Turning to `COc1ccc(-n2c(C)cc(=O)n2CCCN2CCN(c3cc(C)ccn3)CC2)cc1` [Example 47], the ED50 in data set [1] was 6.8 mg/kg; in data set [3], 6.8 mg/kg; in data set [4], 5.96 mg/kg. Besides, in data set [2], the LD50 at 192 h stood at 190 mg/kg.
As to `Cc1cc(=O)n(CCCN2CCN(c3ccccn3)CC2)n1-c1ccccc1` [Example 45], the values for the 50% effective dose (ED50) in data set [1], in data set [3] and in data set [4] were 11 mg/kg, 8 mg/kg and 6.3 mg/kg, respectively. The LD50 at 192 h in data set [2] stood at 240 mg/kg.
The matching figures for `Cc1ccnc(N2CCN(CCCn3c(=O)cc(C)n3-c3ccc(C#N)cc3)CC2)c1` [Example 46]: 2.8 mg/kg, 8 mg/kg, 6.3 mg/kg and 101 mg/kg.
In the case of `Cc1ccnc(N2CCN(CCCn3c(=O)cc(C)n3-c3ccc([N+](=O)[O-])cc3)CC2)c1` [Example 2, 5-methyl-1-(4-nitrophenyl)-2-{3-[4-(4-methyl-pyrid-2-yl)-piperazin-1-yl]-propyl}-pyrazolin-3-one], the results for the ED50 in data set [1], in data set [3] and in data set [4] were 1.75 mg/kg, 2.7 mg/kg and 1.9 mg/kg, respectively. Besides, the median lethal dose (LD50) at 192 h in data set [2] amounted to 90 mg/kg.
In the same order, the values of `COc1ccccc1-n1c(C)cc(=O)n1CCCN1CCN(c2cc(C)ccn2)CC1` [Example 21] are 5.1 mg/kg, 8.3 mg/kg, 7.1 mg/kg and 252 mg/kg.
In the same order, the values of `CCc1cc(=O)n(CCCN2CCN(c3cc(C)ccn3)CC2)n1-c1ccc([N+](=O)[O-])cc1` [Example 38] are 3.88 mg/kg, 5.54 mg/kg, 3.18 mg/kg and 93 mg/kg.
For `Cc1cc(=O)n(CCCN2CCN(c3ccccc3)CC2)n1-c1ccccc1` [Example 11], the median effective dose (ED50) in data set [1] came out at 10.1 mg/kg; in data set [3], 10.2 mg/kg; in data set [4], 4.65 mg/kg. Moreover, the LD50 at 192 h in data set [2] was determined as 108 mg/kg.
Take `O=c1cc(C2CC2)n(-c2ccccc2)n1CCCN1CCN(c2ccc(F)cc2)CC1` [Example 43]: the ED50 in data set [1] came to 5.79 mg/kg; in data set [3], 3.25 mg/kg; in data set [4], 2.45 mg/kg.
For the compound `Cc1ccnc(N2CCN(CCCn3c(=O)cc(C)n3-c3ccc(O)cc3)CC2)c1` [Example 7, 5-methyl-1-(4-hydroxyphenyl)-2-{3-[4-(4-methyl-pyrid-2-yl)-piperazin-1-yl]-propyl}-pyrazolin-3-one], the ED50 turned out to be 7.9 mg/kg in data set [1], 13 mg/kg in data set [3] and 6.6 mg/kg in data set [4]. This compound also had an LD50 at 192 h in data set [2] of 178 mg/kg.
The matching figures for `COc1ccc(-n2c(C)cc(=O)n2CCCN2CCN(c3cc(C)ccn3)CC2)cc1OC` [Example 56]: 3.85 mg/kg, 6.29 mg/kg, 5.7 mg/kg and greater than 350 mg/kg.
In the same order, the values of `CC(=O)c1ccc(-n2c(C)cc(=O)n2CCCN2CCN(c3cc(C)ccn3)CC2)cc1` [Example 44] are 3.15 mg/kg, 8.9 mg/kg, 5.4 mg/kg and 170 mg/kg.
The matching figures for `Cc1ccc(-n2c(C)cc(=O)n2CCCN2CCN(c3cc(C)ccn3)CC2)cc1` [Example 55]: 11.9 mg/kg, 11.8 mg/kg, 7.26 mg/kg and 135 mg/kg.
In the case of `Cc1ccnc(N2CCN(CCCCn3c(=O)cc(C)n3-c3ccccc3)CC2)c1` [Example 4, 5-methyl-1-phenyl-2-{4-[4-(4-methyl-pyrid-2-yl)-piperazin-1-yl]-butyl}-pyrazolin-3-one], the values for the ED50 in data set [1], in data set [3] and in data set [4] were 7.98 mg/kg, 5.9 mg/kg and 3.9 mg/kg, respectively. This compound registered an LD50 at 192 h in data set [2] of 130 mg/kg.
The matching figures for `CCCc1cc(=O)n(CCCN2CCN(c3cc(C)ccn3)CC2)n1-c1ccccc1` [Example 13]: 5.48 mg/kg, 1.87 mg/kg, 2.94 mg/kg and 96 mg/kg.
